Assays:
[1] = tested on: healthy retinal vessels; test: Healthy retinal vessels of adult wild type mice after intravitreal injection; format: in vivo; details: 48 hr after intraocular injection
Description: Vascular length (FIG. 8B; n=4) and branch points (FIG. 8C; n=4) from retinas treated as in (FIG. 8A) were quantified using AutoTube and normalized to retinal area per image. NS=not significant (two-tailed Student's t-test). Error bars=S.D.

[2] = tested on: 3D HUVEC cultures; test: Vasculogenic 3D collagen assay, regression of 3D lumenized HUVEC cultures; format: cell-based, Human
Protocol: Vasculogenic 3D collagen assays. Human Umbilical Vein ECs were purchased from Lonza and used from passages 3 to 6 as previously described^42,43. ECs were suspended in 2.5 mg/mL collagen type I matrices, and assays were performed as described^42,43. With the exception that the culture media contained reduced serum supplement (RSII), ascorbic acid, FGF-2, Stem cell factor (SCF) at 40 ng/ml and interleukin-3 (IL-3) were added at 40 ng/ml. Stromal-derived factor-1α (SDF-1α) was added at 200 ng/ml into collagen type I matrices. Cultures were incubated at 37° C. in serum-free defined media and allowed to assemble over time. Cultures were fixed at 72 hr with 3% glutaraldehyde before staining with 0.1% toluidine blue in 30% methanol for nonfluorescent visualization. Lumen area was quantified by using Metamorph software as previously described^42,43. Individual data points were obtained from a triplicate wells and a minimum of 12 independent fields from these wells.
Bioassays with pharmacologic agents and cytokines. […] In some assays, triplicate wells were lysed with sample buffer and Western blots were performed to probe for pro-caspase 3 and actin.
YK-4-279 promotes flow-dependent vascular regression in vitro. […] Importantly, this culture model recapitulates many aspects of in vivo vessel morphology and has previously been used to model vascular regression^40.

[3] = tested on: HUVECs; test: HUVEC flow chamber study, static versus flow; format: cell-based, Human
Protocol: Cell Culture/Flow Studies. Flow-based cell culture was performed using HUVECs (ATCC; #PCS-100-010) cultured in complete EGM-2 media (Lonza). HUVECs were cultured on Ibidi Luer^0,6 flow slides and allowed to grow at 37° C. in 5% CO2 for 24 h to a confluency of 80-90%. Slides were then attached to an Ibidi pump system with Perfusion Set Red (1.6 mm, #10962) and exposed to a sheer stress of 10 dyn/cm^2 for 24 h. Static conditions were achieved by similarly plating HUVECs in flow slides that were not exposed to flow. […] Cells were gently washed with 1 mL ice-cold PBS, then fixed and permeabilized by incubation with ice-cold methanol for 5 min. Fixed cells were treated with 1% BSA, 0.02% Triton X-100 for 1 hr at room temperature. Primary and secondary antibodies were added in 1% BSA and incubated for 2 hr at room temperature.
HUVECs grown in this 3D culture model form vascular lumens despite the absence of blood flow. […] This possibility is supported by a recent report that the transcriptional consequences of ERG inhibition are greatly mitigated in ECs exposed to sheer stress^58.

[4] = tested on: retinal neovessels; details: OIR mice
Description: OIR Studies/Quantification. […] Generally, pups with their dams were maintained in room air from birth until P7. From P7 to P12 pups were exposed to 75% O2 in an oxygen chamber regulated by an OxyCycler Model A84. After 2.5 d of oxygen exposure, the dams were replaced with healthy lactating dams to prevent oxygen toxicity. At P12 pups were returned to room air until P18.
Two days after the injection, P20 mice were euthanized and retinas were dissected and immunostained for CD31 to quantify retinal vascular area as previously described^45.

[5] = tested on: hyaloid vessels; test: Hyaloid vessel regression after intravitreal injection; format: in vivo, mice; details: intravitreal injection at P5, assessed at P7, versus vehicle-injected littermate controls; final concentration ~10 μmol/L in vitreous
Protocol: Hyaloid Dissection and Quantification. Hyaloid were dissected and quantified as described previously. Briefly, eyes were enucleated from P4-P8 mice and fixed for 30 min in 4% paraformaldehyde (PFA). The eyes were then transferred to PBS and dissected by removal of the lens and sclera leaving the retinal cup in which the hyaloids were loosely wrapped around the lens. The lens was then carefully removed from which the hyaloids were gently removed. The hyaloids were then transferred in a drop of PBS and flat mounted for imaging by carefully removing the remaining PBS.
Quantification of hyaloid regression was accomplished by drawing an outline of hyaloid flat mounts (labeled with Isolectin-B4) which was then decreased in size by 50% and centered over the hyaloid flat mount. Blind counts of hyaloid vessel number were performed by counting the number of vessels which crossed the 50% outline.
Hyperthermia-induced anesthesia of wild type P5 mice was accomplished by submerging pups in ice for 5-8 min after placing them in a latex blanket wrapped in foil to avoid direct contact between the pup and ice. Once anesthetized (assessed by toe pinch) eyes were administered a drop of proparacaine hydrochloride ophthalmic solution (Akorn), followed by gentle exposure of the eye globe. […] Eyelids were then reclosed around the eye, and erythromycin ophthalmic ointment (Akorn) was applied. […]

[6] = tested on: ROP; details: intravitreal injection, randomized study; cited from earlier work
[7] = inhibitor-injected eye relative to control eye

For `COc1ccc(C(=O)CC2(O)C(=O)Nc3c(Cl)ccc(Cl)c32)cc1` (stereo not drawn) [YK-4-279], which “effects on retinal vascularization (vascular length, branch points)” value [1] is on record?
Its value is “no effects”.

And the “concentrations giving significant, dose-dependent loss of vascular luminal area” value ([2]; 3D HUVEC cultures, 48 h treatment, toluidine blue stain)?
The value was “greater than 1.25 μM”.

And the “pro-caspase 3 signal (Western blot)” value ([2]; 3D HUVEC cultures, FIG. 5C)?
Its value is “Reduced pro-caspase 3 signal”.

And the “extent of vascular regression (3D HUVEC lumen area) on co-incubation with cytokines” value ([2]; co-incubation of TNFα or IL1β with YK-4-279, versus YK-4-279 alone)?
The value was “further increases the extent of vascular regression”.

What about the “active caspase-3 staining” value ([3]; flow conditions, 10 dyn/cm^2) of the same molecule?
The value was “no apparent effect”.

What about the “alignment of HUVECs in the direction of flow” value ([3]; flow conditions, 10 dyn/cm^2) of the same molecule?
Its value is “inhibited the alignment”.

And the cell number ([3]; flow conditions, 10 dyn/cm^2)?
Its cell number is “no apparent effect”.

And the “active caspase-3 staining” value ([3]; static conditions, 5 μM, 24 hr)?
The value was “increased active caspase-3 staining”.

And the cell number ([3]; static conditions, 5 μM, 24 hr)?
Its cell number is “significantly reduced cell numbers”.

What about the “mice showing an increase in neovessels” value [4, 7] of the same molecule?
The value was “one”.

And the “mice with a decrease in retinal neovascular area” value [4, 7]?
The value was 9 out of 11.

What about the “decrease in the retinal avascular area” value ([4]; intravitreal injection at P18, analysed at P20, versus vehicle) of the same molecule?
Its value is ~60%.

What about the “reduction in retinal neovascular area” value ([4]; intravitreal injection at P18, analysed at P20, versus vehicle-injected contralateral eye) of the same molecule?
Its value is ~40%.

And the “reduction in hyaloid vessel number” value [5]?
The value was ~40%.

With “bevacizumab: a monoclonal VEGF-A antibody” as the molecule, how does the “efficacy versus conventional laser-based therapy for treating ROP” value [6] read?
Its value is “more effective”.

Source: patent publication US20240139153A1, “Inhibition of Endothelial ETS Family Transcription Factors Promotes Flow-Dependent Ocular Vessel Regression” (Oklahoma Medical Research Foundation, priority 2020, published 2024)
